Assay results reported in patent US11458212B2, “Molecular imaging of cancer cells in vivo” (H. Lee Moffitt Cancer Center and Research Institute, Inc., priority 2011, dated 2022).
“Also recorded” adds a separate entry of the source. Each block holds one molecule with its values, some of them ahead of it.

Legend:
[1] = target: T1, TLR2 (Homo sapiens, UniProt O60603); test: In vitro TLR2 functional bioassay (NF-κB luciferase, HEK293/hTLR2 cells); format: cell-based; set-up: host or cells: HEK293 stably transfected with pUNO-hTLR2, transiently transfected with the pNifty-Luc reporter
From the text: In Vitro TLR2 Functional Bioassay The in vitro TLR2 functional bioassay was developed and optimized for use in screening soluble compound libraries to identify both TLR2 agonists and antagonists. In this study, the TLR2 functional bioassay was used as a fast high throughput screening to identify TLR2 agonist ligands by measuring the inducing activity of NF-κB. HEK293/hTLR2 cells, highly overexpressing human TLR2, were used along with the parental HEK293, cells as a negative control. Cells were seeded at a density of 40,000 per well using a WellMate® Microplate dispenser (Thermo Fischer Scientific/Matrix) in black 96-well plates with opaque white wells (Perkin Elmer Wallac, Waltham, Mass.) and then incubated at 37° C. On day 2, the cells were transiently transfected with pNifty-Luc (InvivoGen), an NF-κB inducible reporter plasmid expressing the luciferase reporter gene (Zuany-Amorim, C., J., et al. Nat Rev Drug Discov, 2002. 1(10):797-807), using an optimized 4:1 ratio by volume of Fugene® HD Transfection Reagent (Roche Applied Science, Indianapolis, Ind.) to pNifty-Luc plasmid DNA (1 μg/mL). […] On day 4 after 24 hrs of peptide stimulation, luciferase induced activity by the induction of NF-κB was measured. Media was aspirated from the wells using an ELx405 Select plate washer (BioTek, Winooski, Vt.), 150 μg/mL D-luciferin (Gold Biotechnology, St. Louis, Mo.) was dispensed using the microplate dispensor; the plates were incubated at 37° C. for 5 min. The luminescence intensity was measured using the standard luminescence protocol on a Victor™ X4 plate-reader equipped with a plate stacker for readout of multiple plates at a time (PerkinElmer, Waltham, Mass.). For each in vitro TLR2 bioassay, at least three different experiments were performed in triplicate (n=3+). Data were analyzed with GraphPad Prism software and curves were generated with the appropriate nonlinear fit regression analysis.
The in vitro TLR2 functional bioassay was developed and optimized for use in high-throughput screening of soluble compound libraries to identify both TLR2 agonists and antagonists. The bioassay measures the induction of NF-κB signaling via TLR2 in HEK-293/hTLR2 cells and parental HEK-293 cells as a negative control. Cells were seeded at a density of 40,000 per well using a WellMate Microplate dispenser (Thermo Fisher Scientific/Matrix) in black 96-well plates with opaque white wells (PerkinElmer, Waltham, Mass.) and then incubated at 37° C. On day 2, the cells were transiently transfected with pNifty-Luc (InvivoGen, San Diego, Calif.), an NF-κB inducible reporter plasmid expressing the luciferase reporter gene[28] using an optimized 4:1 ratio by volume of FugeneHD Transfection Reagent (Promega, Madison, Wis.) to pNifty-Luc plasmid DNA (1 μg/mL). […] […] On day 4 after 24 h of peptide stimulation, luciferase induced activity by the induction of NF-κB was measured. Media was aspirated from the wells using an ELx405 Select CW plate washer (BioTek, Winooski, Vt.), 150 μg/mL D-luciferin (Gold Biotechnology, St. Louis, Mo.) was dispensed using the microplate dispensor; the plates were incubated at 37° C. for 5 min. The luminescence intensity was measured using the standard luminescence protocol on a Victor X4 Multilabel plate reader equipped with a plate stacker for readout of multiple plates at a time (PerkinElmer, Waltham, Mass.). […] Data were analyzed with GraphPad Prism software and curves were generated with the appropriate nonlinear fit regression analysis.
Target sequence in this assay (O60603 21-784): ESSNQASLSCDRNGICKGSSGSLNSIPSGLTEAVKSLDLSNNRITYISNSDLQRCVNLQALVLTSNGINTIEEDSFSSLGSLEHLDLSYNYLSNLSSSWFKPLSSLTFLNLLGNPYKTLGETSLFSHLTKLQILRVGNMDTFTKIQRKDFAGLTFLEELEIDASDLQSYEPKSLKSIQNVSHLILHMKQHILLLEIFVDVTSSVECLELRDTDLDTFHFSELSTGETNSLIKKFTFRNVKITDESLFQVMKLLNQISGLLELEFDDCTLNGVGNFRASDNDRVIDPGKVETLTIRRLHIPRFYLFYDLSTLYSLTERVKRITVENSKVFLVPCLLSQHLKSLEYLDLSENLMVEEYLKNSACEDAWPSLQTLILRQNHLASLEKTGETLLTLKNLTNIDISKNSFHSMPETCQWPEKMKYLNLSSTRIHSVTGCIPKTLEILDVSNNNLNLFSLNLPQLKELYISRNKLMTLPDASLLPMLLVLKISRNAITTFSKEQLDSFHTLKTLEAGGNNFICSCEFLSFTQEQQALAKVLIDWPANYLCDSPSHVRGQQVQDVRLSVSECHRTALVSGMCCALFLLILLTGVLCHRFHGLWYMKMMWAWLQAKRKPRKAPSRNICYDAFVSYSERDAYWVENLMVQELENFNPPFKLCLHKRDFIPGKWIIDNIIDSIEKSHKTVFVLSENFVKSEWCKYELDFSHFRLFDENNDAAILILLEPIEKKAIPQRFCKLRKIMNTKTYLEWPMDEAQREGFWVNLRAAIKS
Target sequence in this assay (Q9Y2C9 32-796 partner): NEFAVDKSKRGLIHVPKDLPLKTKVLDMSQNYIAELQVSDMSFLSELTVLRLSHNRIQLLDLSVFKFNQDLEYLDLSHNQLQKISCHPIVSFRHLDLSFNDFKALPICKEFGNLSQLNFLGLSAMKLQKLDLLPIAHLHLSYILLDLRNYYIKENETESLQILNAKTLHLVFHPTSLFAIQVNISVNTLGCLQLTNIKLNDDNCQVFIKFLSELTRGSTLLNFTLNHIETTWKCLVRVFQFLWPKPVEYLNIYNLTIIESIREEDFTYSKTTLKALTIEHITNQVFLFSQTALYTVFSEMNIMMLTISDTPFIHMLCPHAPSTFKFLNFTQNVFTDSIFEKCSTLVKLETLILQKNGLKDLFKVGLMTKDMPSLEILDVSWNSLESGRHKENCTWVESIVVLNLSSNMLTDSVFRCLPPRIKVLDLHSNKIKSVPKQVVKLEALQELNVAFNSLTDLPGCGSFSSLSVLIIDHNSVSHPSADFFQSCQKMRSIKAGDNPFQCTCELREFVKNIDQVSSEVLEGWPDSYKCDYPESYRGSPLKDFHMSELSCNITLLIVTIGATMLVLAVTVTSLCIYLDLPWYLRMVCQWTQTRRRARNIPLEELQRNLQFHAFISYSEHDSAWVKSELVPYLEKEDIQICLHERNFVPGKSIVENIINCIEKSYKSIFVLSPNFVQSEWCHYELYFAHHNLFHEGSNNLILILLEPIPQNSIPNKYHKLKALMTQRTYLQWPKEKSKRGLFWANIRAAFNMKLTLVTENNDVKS

[2] = target: T1, TLR2; test: In cyto europium TRF saturation binding assay; set-up: ATCC (SU.86.86 CRL-1837, Capan-I HTB-79); SU.86.86 and Capan-I express TLR2 endogenously
Method: TRF binding assays were performed as previously described (see Xu, L., et al. Mol Cancer Ther. 2009 8(8):2356-65).
Europium TRF binding assays were performed as previously described with slight modifications using 3 cell lines that express TLR2: HEK-293/hTLR2, SU.86.86, and Capan-I.[23a, 23d, 29] The Capan-I and SU.86.86 cells were plated in 96-well black plates with white opaque wells (PerkinElmer); while the HEK-293/hTLR2 cells were plated on 96-well poly-D-lysine coated plates (Sigma-Aldrich) to aid in the attachment of these cells to the plate. Cells were grown in the 96-well plates for 2 days reaching approximately 80% confluency. Both types of plates were evaluated for nonspecific binding and background signal.
For saturation binding, increased concentrations of the labeled ligand, compound 11 (Table 8), were used to determine total binding to TLR2. Non-specific binding was determined in the presence of 1 μM Pam2CSK4. On the day of the experiment the medium was aspirated. 50 μL of binding buffer was added to the total binding wells and 50 μL of Pam2CSK4 was added to the non-specific wells and then allowed to incubate for 30 m at 37° C. Next, 50 μL of the serial dilutions of […] were added and then allowed to incubate for 1 h at 37° C. Cells were washed three times to remove unbound ligand. Next, 100 μL of DELFIA Enhancement Solution (PerkinElmer) was added to each well. Cells were incubated for 30 min at 37° C. prior to reading. The plates were read on the VICTOR X4 Multilabel plate reader using the standard europium TRF protocol (340 nm excitation, […] and […] collection at 615 nm). To determine the mean Kd, statistical analysis was performed using GraphPad Prism software.
Target sequence in this assay (O60603 21-784): as the sequence (O60603 21-784) above
Target sequence in this assay (Q9Y2C9 32-796 partner): as the sequence (Q9Y2C9 32-796 partner) above

[3] = tested on: orthotopic pancreatic tumors; test: FL guided intraoperative surgical removal of orthotopic pancreatic tumors; format: in vivo, mice; settings: 24 h post-injection, data not shown
From the text: Improved survival rates for pancreatic cancer are associated with the complete surgical resection of tumor resulting in a tumor-free margin (R0). New methods employing intraoperative fluorescence (FL) guided tumor detection could lead to increased R0 margins and improved survival. We have reported Toll-like receptor 2 (TLR2) as a bona fide cell-surface marker for pancreatic adenocarcinoma. We then developed a high-affinity TLR2 binding ligand conjugated to a near-infrared (NIR) fluorescent dye, IR800CW, as a targeted molecular imaging probe for the intraoperative detection of surgical margins. To evaluate the in vivo pharmacokinetics and biodistribution of compound 13, FL imaging was performed on multiple optical imaging systems (PerkinElmer IVIS 200 and FMT2500XL, and ART Optix MX3) using TLR2 expressing pancreatic tumor xenograft mouse models (subcutaneous and orthotopic). […] Prior to surgery, the orthotopic pancreatic tumor volumes were monitored weekly and measured in vivo by 3D ultrasound imaging. […]

[4] = tested on: TLR2 expressing tumor xenografts (SU.86.86 cells); test: In vivo TLR2 selectivity / tumor retention fluorescence imaging; set-up: species or system nude mice; settings: for retention of fluorescence signal in tumor: 24 h post injection
Method: Female athymic nude mice 6-8 weeks old (Harlan) bearing human pancreatic tumor xenografts consisting of SU.86.86 cells on the right flank were used for this study. Mouse weights and tumor volumes were determined using caliper measurements and the formula: volume (mm3)=(length×width^2)/2. Images were acquired when the tumors reached an average size of 500 mm^3. For the blocked group, a co-injection of 100 nmol/kg of the fluorescently labeled compound 13 plus 2 μmol/kg Pam2CSK4 (a 20-fold excess) was administered via tail vein injection; for the unblocked group, 100 nmol/kg 13 was administered. Fluorescence images were acquired at time 0 and 24 h using the Caliper Xenogen IVIS200 system (PerkinElmer) with the 710-760 nm excitation and 810-875 nm emission filter set. The fluorescence was quantified using Living Image software, in which the quantified signals were corrected for both instrument and mouse background subtractions. The quantified fluorescence was then plotted using GraphPad Prism software and underwent statistical analysis using Student's t-test.
For further confirmation of ligand 13 specificity for TLR2, ex vivo fluorescence imaging and histological analyses were performed on the tumors. For histological analyses the samples were fixed in 10% formalin solution, processed, embedded, sectioned and either H&E stained for the presence of tumor or underwent IHC staining using TLR2 antibody (Abcam #ab24192).

[5] = tested on: TLR2 expressing tumor xenografts (SU.86.86 cells); test: as above; set-up: species or system nude mice
[6] = target: T1, TLR2; test: In cyto europium TRF competition binding assay; set-up: ATCC (SU.86.86 CRL-1837, Capan-I HTB-79); SU.86.86 and Capan-I express TLR2 endogenously
Target sequence in this assay (O60603 21-784): as the sequence (O60603 21-784) above
Target sequence in this assay (Q9Y2C9 32-796 partner): as the sequence (Q9Y2C9 32-796 partner) above
Method: Competition binding assays were performed to test the TLR2 binding specificity of the test ligands using 2 cell lines: HEK-293/hTLR2 and SU.86.86. Cells were grown in 96-well plates for 2 days reaching approximately 80% confluency. On the day of the experiment, the cell culture media was aspirated and 50 μL of non-labeled test ligand was added in a series of decreasing concentrations (1 μM to 0.01 nM) followed by 50 μL of the competing Eu-labeled ligand 10 at a fixed concentration of 90 nM. Cells were incubated with labeled and unlabeled ligands for 1 h at 37° C. […] Cells were incubated for 30 min at 37° C. prior to reading. The plates were read on PerkinElmer VICTOR X4 Multilabel reader using the standard europium TRF protocol. […]

[7] = target: T1, TLR2; settings: 95° C. for 30 min; cited from earlier work
Target sequence in this assay (O60603 21-784, species assumed): as the sequence (O60603 21-784) above

decrease in potency compared to 10 [1]: 10 fold | Bmax ([2]; Capan-I cells): 951,170 AFU | Bmax ([2]; HEK-293/hTLR2 cells): 114,271 AFU | Bmax ([2]; SU.86.86 cells): 269,878 AFU | Kd ([2]; cell line not stated): 30 nM
Molecule: CCCCCCCCCCCCCCCC(=O)OC[C@H](CSC[C@H](NC(=O)COCC(=O)NCCCOCCOCCOCCCNC(=O)CN(CCN(CCN(CC(=O)O)CC(=O)O)CC(=O)O)CC(=O)O)C(=O)NCC(=O)N[C@H](CO)C(=O)NCCCOCCOCCOCCCNC(=O)COCC(N)=O)OC(=O)CCCCCCCCCCCCCCC [Compound 11]

EC50 ([1]; dose-response 0.001 ng/mL to 10 μg/mL, read-out: TLR2 Agonist Activity EC50): 34 nM | Ki ([6]; SU.86.86 cells, 90 nM compound 11): 67 nM | Ki ([6]; competitive binding assay, cell line not stated): 11 nM
Molecule: CCCCCCCCCCCCCCCC(=O)OC[C@H](CSC[C@H](NC(=O)COCC(=O)NCCCOCCOCCOCCCNC(=O)CCSC1CC(=O)N(CCNC(=O)CCCCC[N+]2=C(/C=C/C3=C(Oc4ccc(S(=O)(=O)[O-])cc4)C(=C/C=C4/N(CCCCS(=O)(=O)O)c5ccc(S(=O)(=O)O)cc5C4(C)C)/CCC3)C(C)(C)c3cc(S(=O)(=O)O)ccc32)C1=O)C(=O)NCC(=O)N[C@H](CO)C(=O)NCCCOCCOCCOCCCNC(=O)COCC(N)=O)OC(=O)CCCCCCCCCCCCCCC (stereo partly drawn) [Compound 13, IRDye800CW-Mpr-PEGO-Cys(S-[2,3-bis(palmitoyl)oxy-(R)-propyl])-Gly-DSer-PEGO-NH2]
intraoperative fluorescence detection of tumor [3]: intraoperative detection of pancreatic cancer were demonstrated | mean tumor fluorescence unblocked / blocked ([4]; 24 h, 100 nmol/kg 13 ± 2 μmol/kg Pam2CSK4 (20-fold excess), n=8): 1.94 fold | effect of blocking with excess unlabeled ligand on tumor signal ([4]; 24 h, p<0.001): significantly decreased FL signal in the tumor; also recorded: significant reduction in the tumor fluorescence | retention of fluorescence signal in tumor [4]: Fluorescence signal was present in TLR2 expressing pancreatic tumor xenografts; also recorded: retention of fluorescence signal in the tumor | retention of fluorescence signal in tumor ([4]; listed as LiCor IRDye800CW/T-02 conjugate): retained in the tumor at 24 h post injection while the agent had cleared from the animal except for the kidneys | duration of retention in the SU.86.86 tumor ([5]; 10 nmol/Kg dosage): over 96 h | clearance from the kidney ([5]; mouse, in vivo): cleared from the kidney within days of the injection but was retained longer in the tumor | uptake in orthotopic pancreatic tumor xenografts ([5]; orthotopic): taken into and retained in orthotopic pancreatic tumor xenografts | duration of FL signal retention in TLR2 expressing tumor xenografts ([5]; post-injection, dose not stated): up to 96 h

NF-κB induced luciferase activity (luminescence) in screening ([1]; 1 μg/mL, SAA at 1 and 10 μg/mL): low potency
B1: SAA: recombinant human Apo-SAA1 (Peprotech) derived from E. coli; serum amyloid A, acute-phase protein, TLR2 agonist (protein)
chain: MRSFFSFLGEAFDGARDMWRAYSDMREANYIGSDKYFHARGNYDAAKRGPGGVWAAEAISDRENIQRFFGHGAEDSLADQAANEWGRSGKDPNHFRPAGLPEKY
loss of activity of heat-treated SAA [7]: 95%
